Test results as given in US11684652B2, “HMGB1 antagonist treatment of acute lung injury” (THE FEINSTEIN INSTITUTES FOR MEDICAL RESEARCH, priority 2019, dated 2023).
Values joined by “and” are separate entries in the source; they are usually repeats but may differ in a detail not shown here. Equal values may be shown once. “Also recorded” adds a separate entry of the source. Read-outs that look alike come from different tables or passages of the source.

Key:
[1] = test system: liver ischemia and reperfusion injury; conditions: cited from earlier work
[2] = test system: APAP-induced liver injury; conditions: cited from earlier work
[3] = test system: PAMPs-induced TNF release (LPS, PGN, poly I:C, S100A12); conditions: Yang 2015; cited from earlier work
[4] = test system: PAMPs-induced TNF release (LPS, PGN, poly I:C, S100A12); test: PAMPs-induced TNF release in human macrophages; format: cell-based; conditions: human primary macrophages, increasing amounts of K883, 16 hours
Method: TNF released was measured.

[5] = test system: liver ischemia and reperfusion injury; test: warm liver ischemia and reperfusion (I/R) model; format: in vivo, mouse; conditions: 6 hours after reperfusion, K883 vs vehicle control; FIGS. 21A-C
Method: […] (SEQ ID NO: 1) (or vehicle control) was administered intraperitoneally at 500 μg/mouse at the time of I/R surgery and euthanized 6 hours later. Serum levels of ALT and AST were reduced in […] (SEQ ID NO: 1)-treated group vs. vehicle controls. *: P<0.05 vs. I/R group. n=5-7 mice/group.

[6] = test system: CCI-induced neuropathic pain; test: chronic constriction injury (CCI) of the sciatic nerve neuropathic pain model; format: in vivo, rat
Method: The CCI rats each received surgery. […] Mechanical and thermal sensitivity tests were also performed over time. Hargreaves Thermal Hypersensitivity test was administered to the rats as well as Von Frey mechanical hypersensitivity test.
Rats (male Wistar, 150-180 gm, n=6/group) had CCI surgery. […] Two weeks after surgery, thermal (Hargreaves) or mechanical (von Frey) hypersensitivity was assessed. *: P<0.05 vs. PBS group.
In this experiment, male Wistar rats (n=6/group) had CCI surgery. […] Mechanical allodynia was assessed 5 hours later. N=6-8 rats/group. *: p<0.05) vs. HMGB 1 alone. Mechanical and thermal sensitivity tests were also performed over time.

[7] = pharmacokinetics after intravenous administration in rats (LC-MS); conditions: IV 1 mg/kg
[8] = stability under acidic conditions (LC-MS); format: physicochemical; conditions: pH=2, two hours
[9] = test system: influenza virus A/PR/8/34 (PR8); test: lethal influenza infection model; format: in vivo; conditions: C57BL/6J mice; K883 100 ug/mouse intraperitoneally for 5 consecutive days from two days after infection; vs vehicle
[10] = test system: APAP-induced liver injury; test: APAP-induced liver injury model; format: in vivo, mouse
STZ-induced diabetes = STZ-induced diabetes model; format: in vivo; conditions: STZ-diabetic mice, repetitive K883 500 μg/mouse, vs PBS
Method: Mice were administered repetitive administration of […] (500 μg/mouse). […] Repetitive administration of […] was therefore shown to be beneficial in STZ-induced diabetes. […] (*: P<0.05 vs. PBS group. N=6-8 mice per group).

With `NC(=O)[C@H](CCC(=O)O)NC(=O)[C@H](CO)NC(=O)[C@H](CO)NC(=O)[C@@H](N)Cc1ccccc1` [P5779] as the compound, how does the “liver inflammation, H&E (neutrophil infiltration)” value ([1]; 6 hours after reperfusion, P5779 vs vehicle control) read?
Its value is “reduced inflammation”.

And the “serum levels of ALT and AST” value ([1]; male C57BL/6 mice, 500 μg/mouse IP at the time of I/R surgery, 6 hours, vs vehicle)?
Its value is “reduced”.

What about the “liver necrosis (H&E)” value ([2]; APAP 350 mg/kg, P5779 50 or 500 μg/mouse IP at 2 and 7 hours post-APAP, vs scrambled control peptide) of the same compound?
The value was “reduced liver necrosis”.

What about the “percent survival (2 weeks) post-APAP” value ([2]; APAP 400 mg/kg, P5779 500 μg/mouse IP once a day for 5 days starting 2 hours post-APAP) of the same compound?
The value was “significantly improved”.

What about the “suppression of TNF release in macrophages stimulated by LPS, PGN, Poly I:C, CpG DNA or S100 A12” value [3] of the same compound?
The value was “not suppress TNF release”.

With `NC(=O)N(CCC(=O)O)NC(=O)[C@H](CO)NC(=O)[C@H](CO)NC(=O)N(N)Cc1ccccc1` [K883] as the compound, how does the “inhibition of TNF release induced by other PAMPs (LPS, PGN, AGE, Poly I:C)” value [4] read?
Its value is “failed to inhibit other PAMPS; also recorded: does not inhibit other PAMPs”.

What about the “liver inflammation, H&E (neutrophil infiltration)” value [5] of the same compound?
The value was “reduced inflammation”.

And the “tolerance to repeated treatment” value ([6]; K883 800 μg/rat IP once daily for three days, evaluated for 2 weeks)?
Its value is “did not develop tolerance”.

And the “Paw Withdrawal Latency” value ([6]; NO CCI (reference value))?
Its value is 9.5 ± 1.0 s.

And the “CCI-induced thermal (Hargreaves) and mechanical (von Frey) hypersensitivity” value ([6]; male Wistar rats, K883 800 μg/rat IP once a day for 3 days, vs PBS)?
The value was “ameliorated both mechanical and thermal hypersensitivity; also recorded: improved CCI-induced thermal and mechanical hypersensitivity; also recorded: ameliorated the thermal hypersensitivity”.

And the “CCI-induced CXCL1, TNF and IL-1β expression (spine)” value ([6]; spine)?
Its value is “reduce CCI-induced CSCL1, TNF and IL-1(3 expression”.

And the “AUC∞” value ([7]; Mean)?
Its value is 3778 ng·h/mL.

And the “AUC∞” value ([7]; individual rats, 1 mg/kg)?
The value was 3808 ng·h/mL and 3751 ng·h/mL.

What about the “stability under acidic conditions” value [8] of the same compound?
Its value is “resistant to acid hydrolysis”.

And the “survival (14 days) after PR8 infection” value [9]?
Its value is “significant survival”.

And the “serum ALT” value ([10]; 50 ugs/mouse of K883, vs vehicle controls)?
The value was “reduced serum ALT”.

What about the “liver necrosis (H&E)” value ([10]; APAP 350 mg/kg IP, K883 50 μg/mouse IP at 2 and 7 hours post-APAP, 24 hours, vs vehicle) of the same compound?
The value was “reduced liver necrosis”.

And the “survival (2 weeks) post-APAP” value ([10]; APAP 400 mg/kg, 50 μg/mouse IP once-a-day for 5 days starting 2 hours post-APAP, 8 in the control group)?
Its value is 14 mice out of 15.

And the hyperglycemia (STZ-induced diabetes)?
Its hyperglycemia is “delays hyperglycemia”.

And the insulitis (STZ-induced diabetes)?
The insulitis was “reduces insulitis”.

What about the weight gain (STZ-induced diabetes) of the same compound?
Its weight gain is “improves weight gain”.
